Measured values reported in patent US20120121545A1, “Pharmaceutical Composition For Bone Disease Treatment Or Countering Inflammation, Comprising Cartilage Stem Cells As An Active Principle” (CoreStem Co., Ltd., priority 2009, published 2012).

Assays:
Assay type in all cases: in vivo, Sprague-Dawley rats
[1] = tested on: osteoarthritis-induced rats; assay: Knee cartilage thickness by histomorphometry; settings: diclofenac sodium 2 mg/kg subcutaneously once a day for 84 days
Procedure: The articular capsule taken from the knee joint of each control group and test group was fixed for 5 days in 10% neutral-buffered formalin (NBF) and decalcified in decalcifying solution (24.4% formic acid, and 0.5 N sodium hydroxide). The decalcifying solution was replaced once a day for 5 days. After the decalcification, the median joint parts of the articular capsule were cut transversely and embedded in paraffin. […]
Mankin score was measured by comparing damage to the knee joint tissue with that of the normal control group. Cartilage thickness of the tibia and the femur was measured by histomorphometry using an automatic image analyzer (DMI-300, DMI, Korea). […]

[2] = tested on: osteoarthritis-induced rats; assay: Change in knee joint thickness, osteoarthritis-induced rats; settings: diclofenac sodium 2 mg/kg subcutaneously once a day for 84 days
Procedure: One hundred and twenty (120) 6-week-old male Sprague-Dawley rats (SLC, Japan) were used for test after accommodation for 7 days. All the test animals were kept in a polycarbonate cage, four or five each, and reared in a laboratory with temperature (20-25° C.) and humidity (40-45%) controlled. The light/dark cycle was 12 hours:12 hours, and feed (Samyang Corporation, Korea) and drinking water well provided freely. All the test animals had been fasted for at least 18 hours before sacrificing. They were treated according to “Guide for the Care and Use of Laboratory Animals by Institute of Laboratory Animal Resources, Commission on Life Science, National Research Council, USA on 1996, Washington D.C.”. On day 7 after joint surgery, the rats were grouped into 7 groups as described in Table 4 based on joint thickness and body weight. 8 rats were selected from each group (56 in total) for test. […] The joint thickness of the rats in the control groups and test groups was measured using calipers. […] Percent change between the normal control group and the osteoarthritis-induced control group was calculated by Equation 1 in order to evaluate the degree of inducement of osteoarthritis. Also, percent change between the cell administration group and the osteoarthritis-induced control group was calculated by Equation 2 in order to more clearly represent the efficacy of the administered cells. […]

[3] = tested on: osteoarthritis-induced rats; assay: Growth of chondrocytes in knee cartilage (BrdU labelling); settings: diclofenac sodium 2 mg/kg subcutaneously once a day for 84 days
Procedure: (§1) One hundred and twenty (120) 6-week-old male Sprague-Dawley rats (SLC, Japan) were used for test after accommodation for 7 days. All the test animals were kept in a polycarbonate cage, four or five each, and reared in a laboratory with temperature (20-25° C.) and humidity (40-45%) controlled. The light/dark cycle was 12 hours:12 hours, and feed (Samyang Corporation, Korea) and drinking water well provided freely. All the test animals had been fasted for at least 18 hours before sacrificing. They were treated according to “Guide for the Care and Use of Laboratory Animals by Institute of Laboratory Animal Resources, Commission on Life Science, National Research Council, USA on 1996, Washington D.C.”. On day 7 after joint surgery, the rats were grouped into 7 groups as described in Table 4 based on joint thickness and body weight. 8 rats were selected from each group (56 in total) for test.
(§2) The cells were suspended in CSBM at four different concentrations (high concentration: 9.6×10^6 cells/rat, intermediate high concentration: 4.8×10^6 cells/rat, intermediate low concentration: 2.4×10^6 cells/rat, low concentration: 1.2×10^6 cells/rat). […] For the normal group and the osteoarthritis-induced control group, only the CSBM was administered into the articular capsule.
Chondrocytes growing in the articular capsule were labeled with BrdU in order to investigate their growth due to the administration of the cartilage-derived stem cells. Since the cells labeled with BrdU are those grown after the injection of BrdU, the growth of chondrocytes can be analyzed.
5-Bromo-2′-deoxyuridine (50 mg/kg, BrdU, MP Biomedicals, OH, USA) diluted in physiological saline to a concentration of 2 mL/kg was intraabdominally injected once 72 hours before the sacrificing of the rats of the control groups and test groups. Then, immunohistochemical staining was performed using BrdU antibody (Hwang et al., 2000; Moore et al., 2005; Ganey et al., 2003; Ito et al., 1998; Tang et al., 2007).
The expression pattern of BrdU was investigated using the Vector Elite ABC kit (Vector Lab. Inc., CA., USA). After washing the tissue with DPBS, reaction was performed in 3% hydrogen peroxide (H2O2) solution for 30 minutes at room temperature. After washing with DPBS, reaction was performed for 30 minutes using normal horse serum (1:100, Vector Lab. Inc., CA, USA) in order to prevent nonspecific reaction that might occur during the staining. […] The number of cells responding to BrdU antibody by 10% or more was counted. From a total of 100 chondrocytes on the articular surface of the tibia and the femur, the percentage of BrdU-positive cells was measured using an automatic image analyzer. […]

[4] = tested on: osteoarthritis-induced rats; assay: Change in maximum knee joint angle, osteoarthritis-induced rats; settings: diclofenac sodium 2 mg/kg subcutaneously once a day for 84 days; after 84 days
Procedure: One hundred and twenty (120) 6-week-old male Sprague-Dawley rats (SLC, Japan) were used for test after accommodation for 7 days. All the test animals were kept in a polycarbonate cage, four or five each, and reared in a laboratory with temperature (20-25° C.) and humidity (40-45%) controlled. The light/dark cycle was 12 hours:12 hours, and feed (Samyang Corporation, Korea) and drinking water well provided freely. All the test animals had been fasted for at least 18 hours before sacrificing. They were treated according to “Guide for the Care and Use of Laboratory Animals by Institute of Laboratory Animal Resources, Commission on Life Science, National Research Council, USA on 1996, Washington D.C.”. […]
The administration groups of the drug and cell were sacrificed after 84 days. After taking out the right hind leg from the hip joint and removing nearby skin, connective tissues and muscles, the maximum knee joint angle was measured with the theoretical maximum as 0°. […]
Percent change between the normal control group and the osteoarthritis-induced control group was calculated by Equation 1 in order to evaluate the degree of inducement of osteoarthritis. Also, percent change between the cell administration group and the osteoarthritis-induced control group was calculated by Equation 2 in order to more clearly represent the efficacy of the administered cells. […]

[5] = tested on: osteoarthritis-induced rats; assay: Histopathological analysis of knee cartilage: Mankin score; settings: diclofenac sodium 2 mg/kg subcutaneously once a day for 84 days
Procedure: as §1, §2
For histopathological observation and analysis of the cartilage Mankin score and cartilage thickness were measured (Table 9). Mankin score is frequently used to evaluate arthritis. A higher score is known to be related with higher inducement of osteoarthritis (Armstrong et al., 1994; Rezende et al., 2006).
The articular capsule taken from the knee joint of each control group and test group was fixed for 5 days in 10% neutral-buffered formalin (NBF) and decalcified in decalcifying solution (24.4% formic acid, and 0.5 N sodium hydroxide). The decalcifying solution was replaced once a day for 5 days. After the decalcification, the median joint parts of the articular capsule were cut transversely and embedded in paraffin. After preparing 3-4 μm thick tissue sections, followed by deparaffinization and hydration, the cartilage was observed after hematoxylin & eosin (H&E) staining and safranin O staining (Camplejohn and Allard, 1988; Kahveci et al., 2000; Tran et al., 2000).
Mankin score was measured by comparing damage to the knee joint tissue with that of the normal control group. Cartilage thickness of the tibia and the femur was measured by histomorphometry using an automatic image analyzer (DMI-300, DMI, Korea).
Mankin Score is Given by the Sum.
Percent change (%) between the cell administration group and the osteoarthritis-induced control group=[(Value of the cell administration group−Value of the osteoarthritis-induced control group)/Value of the osteoarthritis-induced control group]×100 Equation 2

Question: With O=C(O)Cc1ccccc1Nc1c(Cl)cccc1Cl [Control drug, diclofenac sodium] as the molecule, how does the “Knee cartilage thickness, Femur” value [1] read?
Answer: The value was 409.48 ± 69.80.

Question: What about the “cartilage thickness of the femur, increase as compared to the osteoarthritis-induced control group” value [1] of the same molecule?
Answer: Its value is 35.11%.

Question: What about the “cartilage thickness of the tibia, increase as compared to the osteoarthritis-induced control group” value [1] of the same molecule?
Answer: The value was 68.81%.

Question: And the “reduced knee joint thickness as compared to the osteoarthritis control group” value [2]?
Answer: The value was 5.79%.

Question: What about the “Number of BrdU-positive cells/100 chondrocytes, Femur” value [3] of the same molecule?
Answer: The value was 8.63 ± 4.03 /100 chondrocytes.

Question: And the “Number of BrdU-positive cells/100 chondrocytes, Tibia” value [3]?
Answer: Its value is 8.13 ± 3.52 /100 chondrocytes.

Question: What about the “number of BrdU-positive cells on the articular surface of the femur, increase as compared to the osteoarthritis-induced control group” value [3] of the same molecule?
Answer: The value was 9.52%.

Question: What about the “number of BrdU-positive cells on the articular surface of the tibia, increase as compared to the osteoarthritis-induced control group” value [3] of the same molecule?
Answer: The value was 1.56%.

Question: What about the “Maximum knee joint angle” value [4] of the same molecule?
Answer: The value was 60.75 ± 6.78 °.

Question: And the “knee joint angle decreased as compared to the normal control group” value [4]?
Answer: Its value is 18.18%.

Question: What about the “Mankin score of the femur, decrease as compared to the osteoarthritis-induced control group” value [5] of the same molecule?
Answer: The value was 27.85%.

Question: What about the “Mankin score of the femur: Clones” value [5] of the same molecule?
Answer: Its value is 2.38 ± 0.92.

Question: What about the “Mankin score of the femur: Hypocellularity” value [5] of the same molecule?
Answer: The value was 1.38 ± 0.52.

Question: And the “Mankin score of the femur: Safranin O” value [5]?
Answer: The value was 1.25 ± 0.46.

Question: And the “Mankin score of the femur: Sum (Max = 12)” value [5]?
Answer: Its value is 7.13 ± 1.36.

Question: And the “Mankin score of the femur: Surface” value [5]?
Answer: Its value is 2.13 ± 0.35.

Question: What about the “Mankin score of the tibia, decrease as compared to the osteoarthritis-induced control group” value [5] of the same molecule?
Answer: The value was 20.59%.

Question: What about the “Mankin score of the tibia: Clones” value [5] of the same molecule?
Answer: Its value is 1.75 ± 0.71.

Question: And the “Mankin score of the tibia: Hypocellularity” value [5]?
Answer: Its value is 1.63 ± 0.52.

Question: And the “Mankin score of the tibia: Safranin O” value [5]?
Answer: The value was 1.38 ± 0.74.

Question: What about the “Mankin score of the tibia: Sum (Max = 12)” value [5] of the same molecule?
Answer: Its value is 6.75 ± 1.16.

Question: What about the “Mankin score of the tibia: Surface” value [5] of the same molecule?
Answer: Its value is 2.00 ± 0.53.
